{"source": "ChEMBL document CHEMBL1201862", "about": "“PubChem BioAssay data set” (2004)", "key": {"HeLa": {"test_system": "HeLa", "assay": "ATP-based viability loss in HeLa cells – cell-based, CellTiter-Glo luminescence, cherry-pick samples, cytotoxicity control for MITF activator project, dose response (AID 540259)", "type": "functional", "conditions": "Homo sapiens"}, "Prothrombin": {"biological_target": "Prothrombin (Homo sapiens, UniProt P00734)", "assay": "Thrombin 1536 HTS Dose Response Confirmation. [Related pubchem assays: 1046 (Thrombin 1536 HTS; hits were confirmed in this assay)]", "type": "functional"}, "Paired box protein Pax-8": {"biological_target": "Paired box protein Pax-8 (Homo sapiens, UniProt Q06710)", "sequence (Q06710 whole entry)": "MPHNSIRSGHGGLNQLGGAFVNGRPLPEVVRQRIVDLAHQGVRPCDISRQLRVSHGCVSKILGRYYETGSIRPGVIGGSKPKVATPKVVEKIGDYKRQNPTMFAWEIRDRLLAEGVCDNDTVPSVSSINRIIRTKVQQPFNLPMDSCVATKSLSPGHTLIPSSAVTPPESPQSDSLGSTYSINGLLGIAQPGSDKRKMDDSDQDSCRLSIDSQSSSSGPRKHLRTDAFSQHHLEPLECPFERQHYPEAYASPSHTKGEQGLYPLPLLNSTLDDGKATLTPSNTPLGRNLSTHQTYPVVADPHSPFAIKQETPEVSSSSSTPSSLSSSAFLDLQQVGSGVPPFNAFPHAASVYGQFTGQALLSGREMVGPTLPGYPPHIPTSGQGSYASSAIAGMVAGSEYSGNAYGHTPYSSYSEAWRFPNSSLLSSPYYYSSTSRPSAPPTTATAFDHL", "assay": "PAX8 transcriptional activity inhibition in RMG-I – RMG-I cells, luciferase, cherry-pick, dose response (AID 687027);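 also: luciferase reporter driven by Pax8 target thyroperoxidase promoter measured by SteadyGlo luminescence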", "type": "functional, cell-based"}, "Vero [1]": {"test_system": "Vero", "assay": "cells", "type": "functional", "conditions": "Chlorocebus sabaeus"}, "[2]": {"assay": "alpha-synuclein stem-loop luciferase translation blockers – H4 neuroglioma cells, luminescence, confirmation (AID 1988)", "type": "functional, cell-based"}, "[3]": {"assay": "Luminescence Cell-Based Dose Response HTS to Identify Inhibitors of 5'UTR Stem-Loop Driven Prion Protein mRNA Translation in H4 Neuroglioblastoma Cells. [Related pubchem assays: 1827 (Project Summary), 1813 (Primary HTS)]", "type": "functional"}, "Vero [4]": {"test_system": "Vero", "assay": "cells", "type": "functional, cell-based", "conditions": "Chlorocebus sabaeus"}, "[5]": {"assay": "luciferase reporter signal suppression in cells – H4 neuroglioma cells, luminescence, dose response (AID 1990)", "type": "functional, cell-based"}, "INS1": {"test_system": "INS1", "assay": "INS-1E survival protection against cytokine death – cell-based, luminescence, retest, dose response (AID 449756);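 also: cell death triggered by IL-1 beta plus TNF-alpha plus IFN-gamma mixture; protective hits raise ATP signal compared with cytokine alone wells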", "type": "functional", "conditions": "Rattus norvegicus"}, "[6]": {"assay": "decrease of insulin promoter-GFP reporter – imaging, high-content screening, mouse beta cells (AID 1628)", "type": "functional", "conditions": "MIN6"}, "[7]": {"assay": "MIN6 cell viability loss – mouse insulinoma, cytotoxicity control, dose response (AID 2122);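 also: confirmatory high-throughput counterscreen run to flag cytotoxic compounds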", "type": "functional"}, "[8]": {"biological_target": "T1, Microphthalmia-associated transcription factor (Homo sapiens, UniProt O75030)", "T1 sequence (O75030 whole entry)": "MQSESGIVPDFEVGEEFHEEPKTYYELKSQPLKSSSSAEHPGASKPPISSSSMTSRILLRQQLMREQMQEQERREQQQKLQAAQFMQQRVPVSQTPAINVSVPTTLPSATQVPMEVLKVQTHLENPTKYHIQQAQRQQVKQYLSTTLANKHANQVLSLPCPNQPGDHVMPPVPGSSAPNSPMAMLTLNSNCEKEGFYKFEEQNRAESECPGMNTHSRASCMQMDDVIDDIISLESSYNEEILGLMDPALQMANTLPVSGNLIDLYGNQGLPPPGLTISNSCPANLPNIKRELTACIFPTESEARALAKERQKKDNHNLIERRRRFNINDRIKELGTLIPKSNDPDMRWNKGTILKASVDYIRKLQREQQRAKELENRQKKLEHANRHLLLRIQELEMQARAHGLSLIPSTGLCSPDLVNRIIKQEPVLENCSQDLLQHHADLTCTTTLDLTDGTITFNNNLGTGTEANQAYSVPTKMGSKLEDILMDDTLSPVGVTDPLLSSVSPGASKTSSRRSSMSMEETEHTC", "assay": "reducers of TRPM1 reporter luminescence, concentration series – cell-based, SK-MEL-5, cherry-picked, set 3, MITF inhibitor project, dose response (AID 493073)", "type": "functional"}, "[9]": {"biological_target": "T2, RNA-binding protein pos-1 (Caenorhabditis elegans, UniProt G5EF15)", "T2 sequence (G5EF15 whole entry)": "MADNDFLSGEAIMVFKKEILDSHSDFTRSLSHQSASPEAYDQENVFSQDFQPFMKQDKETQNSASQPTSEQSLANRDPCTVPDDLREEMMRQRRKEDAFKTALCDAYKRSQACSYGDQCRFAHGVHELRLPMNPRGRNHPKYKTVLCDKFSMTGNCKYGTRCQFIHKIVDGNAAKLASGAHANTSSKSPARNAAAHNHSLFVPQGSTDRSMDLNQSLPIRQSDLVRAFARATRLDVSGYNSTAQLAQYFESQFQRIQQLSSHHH", "assay": "disruptors of C. elegans POS-1 RNA interaction – biochemical, fluorescence polarization, dose response (AID 1964);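 also: purified POS-1 fused to maltose binding protein made in E. coli; potency of compounds blocking POS-1 binding to fluorescent RNA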"}, "[10]": {"biological_target": "T3, Zinc finger protein mex-5 (Caenorhabditis elegans, UniProt Q9XUB2)", "T3 sequence (Q9XUB2 whole entry)": "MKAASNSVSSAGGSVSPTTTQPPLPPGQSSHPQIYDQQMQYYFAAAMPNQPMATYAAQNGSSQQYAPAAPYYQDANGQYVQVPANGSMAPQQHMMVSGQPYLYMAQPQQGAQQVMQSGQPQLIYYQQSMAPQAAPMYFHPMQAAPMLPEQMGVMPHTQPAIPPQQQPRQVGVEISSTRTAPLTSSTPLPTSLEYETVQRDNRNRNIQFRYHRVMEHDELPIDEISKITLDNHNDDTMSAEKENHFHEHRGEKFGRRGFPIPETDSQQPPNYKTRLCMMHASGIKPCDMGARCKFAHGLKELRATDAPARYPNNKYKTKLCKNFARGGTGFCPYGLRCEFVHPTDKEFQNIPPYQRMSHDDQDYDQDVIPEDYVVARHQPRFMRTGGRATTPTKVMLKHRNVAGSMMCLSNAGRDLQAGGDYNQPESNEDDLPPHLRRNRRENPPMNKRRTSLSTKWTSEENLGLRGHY", "assay": "potency of MEX-5 RNA-binding blockers – biochemical, C. elegans, fluorescence polarization, dose response (AID 1960)"}, "[11]": {"biological_target": "T4, Polyadenylate-binding protein 1 (Homo sapiens, UniProt P11940)", "T4 sequence (P11940 whole entry, the tested form may be a part)": "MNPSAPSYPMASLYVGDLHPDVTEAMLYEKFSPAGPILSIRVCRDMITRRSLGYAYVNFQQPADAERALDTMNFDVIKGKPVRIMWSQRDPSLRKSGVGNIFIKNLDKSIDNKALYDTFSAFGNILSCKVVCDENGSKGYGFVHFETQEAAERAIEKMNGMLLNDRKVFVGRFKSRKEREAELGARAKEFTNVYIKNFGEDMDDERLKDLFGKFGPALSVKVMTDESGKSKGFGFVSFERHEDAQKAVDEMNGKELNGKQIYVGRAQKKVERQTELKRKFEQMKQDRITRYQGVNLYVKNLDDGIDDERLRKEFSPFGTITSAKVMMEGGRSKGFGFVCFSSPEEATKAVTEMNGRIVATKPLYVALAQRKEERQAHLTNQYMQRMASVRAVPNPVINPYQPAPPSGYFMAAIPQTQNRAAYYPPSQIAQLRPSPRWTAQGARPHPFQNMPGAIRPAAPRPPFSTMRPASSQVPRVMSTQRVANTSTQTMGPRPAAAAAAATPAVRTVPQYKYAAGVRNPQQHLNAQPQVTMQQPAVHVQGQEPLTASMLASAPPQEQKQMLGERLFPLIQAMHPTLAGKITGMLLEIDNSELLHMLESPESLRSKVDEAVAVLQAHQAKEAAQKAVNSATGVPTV", "assay": "MLLE domain peptide-binding blockers, IC50 – biochemical, fluorescence polarization, FITC-PAM2 peptide, dose response (AID 602259)", "type": "functional", "conditions": "read-out: IC50_Mean"}, "[12]": {"biological_target": "T5, Heat shock factor protein 1 (Mus musculus, UniProt P38532)", "T5 sequence (P38532 whole entry)": "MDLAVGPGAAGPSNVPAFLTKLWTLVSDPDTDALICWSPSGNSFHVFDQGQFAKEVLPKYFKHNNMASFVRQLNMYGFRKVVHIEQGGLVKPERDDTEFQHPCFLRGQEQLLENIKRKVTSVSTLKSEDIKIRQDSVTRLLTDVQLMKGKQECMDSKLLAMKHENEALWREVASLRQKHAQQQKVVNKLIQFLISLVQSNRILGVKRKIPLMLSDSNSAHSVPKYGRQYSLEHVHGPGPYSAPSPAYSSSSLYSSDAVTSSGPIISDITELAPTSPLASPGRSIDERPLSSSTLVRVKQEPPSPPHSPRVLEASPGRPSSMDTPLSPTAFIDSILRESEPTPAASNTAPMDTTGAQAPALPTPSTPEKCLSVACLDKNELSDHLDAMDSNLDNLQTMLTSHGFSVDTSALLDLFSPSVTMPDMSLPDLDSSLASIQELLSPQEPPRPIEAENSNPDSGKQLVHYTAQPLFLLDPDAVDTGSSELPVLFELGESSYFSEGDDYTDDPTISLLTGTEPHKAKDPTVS", "assay": "enhancement of HSF1-driven luciferase signal – cell-based, NIH3T3, luminescence, dose retest, confirmation (AID 435004);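 also: stress induced by proteasome inhibitor MG132 added 30 min after compound; actives raise luminescence as potentiators of the MG132 stress response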", "type": "functional"}, "[13]": {"biological_target": "T4, Polyadenylate-binding protein 1", "assay": "MLLE binding blockers, Cy5 peptide tracer – biochemical, fluorescence polarization, Cy5-PAM2 peptide, secondary, miRNA deadenylation inhibitor project, dose response (AID 602260)", "type": "functional", "conditions": "read-out: IC50_Mean"}, "Cytochrome P450 3A4": {"biological_target": "Cytochrome P450 3A4 (Homo sapiens, UniProt P08684)", "sequence (P08684 whole entry)": "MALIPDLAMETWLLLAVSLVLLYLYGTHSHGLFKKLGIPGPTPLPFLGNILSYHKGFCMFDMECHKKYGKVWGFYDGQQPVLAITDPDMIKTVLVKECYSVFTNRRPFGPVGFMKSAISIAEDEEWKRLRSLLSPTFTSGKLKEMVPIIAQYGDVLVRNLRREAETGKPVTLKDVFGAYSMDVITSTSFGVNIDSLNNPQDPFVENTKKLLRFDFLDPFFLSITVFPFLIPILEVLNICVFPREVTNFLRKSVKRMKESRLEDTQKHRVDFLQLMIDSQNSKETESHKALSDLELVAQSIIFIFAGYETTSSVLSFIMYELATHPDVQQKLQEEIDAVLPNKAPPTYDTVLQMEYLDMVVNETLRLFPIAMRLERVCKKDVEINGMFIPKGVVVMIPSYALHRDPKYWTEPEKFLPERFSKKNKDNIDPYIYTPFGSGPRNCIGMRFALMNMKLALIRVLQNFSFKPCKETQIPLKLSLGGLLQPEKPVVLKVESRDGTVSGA"}, "Cytochrome P450 2D6": {"biological_target": "Cytochrome P450 2D6 (Homo sapiens, UniProt P10635)", "sequence (P10635 whole entry)": "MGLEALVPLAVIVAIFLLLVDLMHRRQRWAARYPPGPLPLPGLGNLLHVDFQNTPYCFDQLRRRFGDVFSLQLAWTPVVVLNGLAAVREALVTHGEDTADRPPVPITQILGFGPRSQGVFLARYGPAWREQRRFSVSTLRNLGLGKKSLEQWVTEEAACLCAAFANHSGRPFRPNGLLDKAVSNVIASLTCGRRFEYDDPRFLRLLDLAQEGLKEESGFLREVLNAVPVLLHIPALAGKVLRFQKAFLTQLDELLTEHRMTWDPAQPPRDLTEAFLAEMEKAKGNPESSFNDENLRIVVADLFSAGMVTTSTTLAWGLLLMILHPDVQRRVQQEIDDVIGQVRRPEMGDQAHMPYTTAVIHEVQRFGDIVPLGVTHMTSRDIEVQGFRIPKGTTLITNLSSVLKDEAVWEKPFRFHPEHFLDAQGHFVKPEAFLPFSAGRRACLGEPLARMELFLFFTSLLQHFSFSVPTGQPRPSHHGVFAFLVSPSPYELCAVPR"}, "Cytochrome P450 2C9": {"biological_target": "Cytochrome P450 2C9 (Homo sapiens, UniProt P11712)", "sequence (P11712 whole entry)": "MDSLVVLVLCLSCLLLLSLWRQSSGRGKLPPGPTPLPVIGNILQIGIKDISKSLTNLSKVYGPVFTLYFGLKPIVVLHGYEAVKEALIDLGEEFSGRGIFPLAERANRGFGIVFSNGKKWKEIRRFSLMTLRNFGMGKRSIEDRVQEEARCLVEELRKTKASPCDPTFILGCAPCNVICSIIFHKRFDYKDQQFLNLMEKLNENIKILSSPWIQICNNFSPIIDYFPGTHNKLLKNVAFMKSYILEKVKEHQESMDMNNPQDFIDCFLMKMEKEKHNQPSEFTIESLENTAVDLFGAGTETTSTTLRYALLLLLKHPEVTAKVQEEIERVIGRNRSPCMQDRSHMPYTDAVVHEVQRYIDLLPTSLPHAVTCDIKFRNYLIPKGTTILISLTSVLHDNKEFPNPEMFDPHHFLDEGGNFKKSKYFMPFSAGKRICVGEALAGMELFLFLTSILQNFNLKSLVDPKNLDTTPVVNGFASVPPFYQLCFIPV"}, "Streptococcus": {"test_system": "Streptococcus", "assay": "GAS UMAA2166 growth inhibition – luminescence, BacTiterGlo, counter-screen for streptokinase expression inhibitor project, dose response (AID 1915);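 also: potency for reduction of bacterial viability or growth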", "type": "functional, organism-based"}, "[14]": {"assay": "NIH3T3 cell viability loss – ATP luminescence, mouse fibroblasts, counter-screen, dose response (AID 2010);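 also: cells exposed to compound for about 90 hours before reading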", "type": "functional, cell-based"}, "[15]": {"assay": "viability of PTEN-deleted HCT116 cells – cell-based, HCT116 PTEN knockout, dose response (AID 1047);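 also: cells exposed to compound for 60 hours before readout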", "type": "functional"}, "[16]": {"assay": "viability of HCT116 lacking mutant beta-catenin – cell-based, human colon tumor, dose response (AID 1045);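 also: cells exposed to compound for 60 hours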", "type": "functional"}, "[17]": {"assay": "Trypanosoma cruzi growth suppression in host cells – NIH3T3 host cells, beta-gal luminescence, confirmation (AID 2044);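 also: intracellular parasites grown in NIH/3T3 mouse fibroblasts as host cells; luminescent beta-galactosidase reporter signal from transgenic T. cruzi replicating inside host cells; inhibitors lower the luminescence signal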", "type": "functional, cell-based"}, "[18]": {"test_system": "Streptococcus sp. 'group A'", "assay": "Streptococcus pyogenes SK(-)GAS viability under kanamycin – luminescence, BacTiterGlo, confirmation, counter-screen for streptokinase expression inhibitor project, dose response (AID 1900)", "type": "functional, organism-based"}}, "note": "Active and inactive are the calls of the source."}
{"smiles": "CCCSc1ccc(C(=O)Nc2ccc(F)cc2F)cn1", "values": [{"measurement": "AC50", "setting": "HeLa", "value": "88.6 µM (active)"}]}
{"smiles": "CCCCOC(=O)Sc1nc2ccccc2o1", "values": [{"measurement": "IC50", "setting": "Prothrombin", "value": "3.11 µM (active)"}]}
{"smiles": "CC1=CC(C)(C)N2C(=O)C3(NCCc4c3[nH]c3ccccc43)c3cc(C)cc1c32", "note": "(stereo unspecified)", "values": [{"measurement": "AC50", "setting": "Paired box protein Pax-8", "value": "7.27 µM (active)"}, {"measurement": "CC50", "setting": "Vero [1]", "value": "> 25 µM (active)"}, {"measurement": "EC50", "setting": "[2]", "value": "> 120 µM (not active)"}, {"measurement": "EC50", "setting": "[3]", "value": "> 120 µM (not active)"}, {"measurement": "IC50", "setting": "Vero [4]", "value": "22.7 µM (active)"}, {"measurement": "EC50", "setting": "[5]", "value": "12.2 µM (active)"}]}
{"smiles": "Cc1cc(O)c(C(=O)/C=C/c2ccc(Cl)cc2)c(=O)o1", "values": [{"measurement": "CC50", "setting": "Vero [1]", "value": "17.6 µM (active)"}, {"measurement": "IC50", "setting": "Vero [4]", "value": "> 25 µM (active)"}]}
{"smiles": "CCN(CC)CCCN(Cc1cc2cc3c(cc2[nH]c1=O)OCO3)C(=S)Nc1ccccc1OC", "values": [{"measurement": "IC50", "setting": "Prothrombin", "value": "> 50 µM (not active)"}]}
{"smiles": "O=[N+]([O-])c1cccc2c(N3CCCC3)ccnc12", "values": [{"measurement": "AC50", "setting": "INS1", "value": "3.17 µM (active)"}, {"measurement": "IC50", "setting": "[6]", "value": "2.41 µM (active)"}, {"measurement": "IC50", "setting": "[7]", "value": "1.18 µM (active)"}, {"measurement": "AC50", "setting": "[8]", "value": "2.47 µM (active)"}]}
{"smiles": "c1ccc2oc(CCc3nc4ccccc4o3)nc2c1", "values": [{"measurement": "AC50", "setting": "HeLa", "value": "56.3 µM (active)"}, {"measurement": "EC50", "setting": "[9]", "value": "> 300 µM (not active)"}, {"measurement": "EC50", "setting": "[10]", "value": "> 300 µM (not active)"}]}
{"smiles": "COc1ccccc1CN(CC(=O)NCc1ccco1)C(=O)CNS(=O)(=O)c1ccc(C)cc1", "values": [{"measurement": "IC50", "setting": "Prothrombin", "value": "7.63 µM (active)"}]}
{"smiles": "CCN(CC)S(=O)(=O)c1ccc(C)c(NC(S)=Nc2cccc(S(=O)(=O)N3CCCCCC3)c2)c1", "values": [{"measurement": "IC50", "setting": "[11]", "value": "> 66 µM (inactive)"}, {"measurement": "CC50", "setting": "Vero [1]", "value": "18.7 µM (active)"}, {"measurement": "EC50", "setting": "[12]", "value": "> 260 µM (inactive)"}, {"measurement": "IC50", "setting": "[13]", "value": "> 66 µM (inactive)"}, {"measurement": "IC50", "setting": "Vero [4]", "value": "> 25 µM (active)"}]}
{"smiles": "CCCC(=O)Nc1ccc(C(=O)Nc2cc(C(F)(F)F)ccc2Cl)cc1", "values": [{"measurement": "AC50", "setting": "Cytochrome P450 3A4", "value": "15.8 µM (inconclusive)"}, {"measurement": "AC50", "setting": "Cytochrome P450 2D6", "value": "8.91 µM (inconclusive)"}, {"measurement": "AC50", "setting": "Cytochrome P450 2C9", "value": "inconclusive"}]}
{"smiles": "COc1ccc(-n2nc(C(=O)c3cccs3)cc(-c3nc4ccccc4[nH]3)c2=N)cc1", "values": [{"measurement": "EC50", "setting": "Streptococcus", "value": "10 µM (active)"}, {"measurement": "EC50", "setting": "[14]", "value": "> 60 µM (not active)"}, {"measurement": "EC50", "setting": "[15]", "value": "14.6 µM (active)"}, {"measurement": "EC50", "setting": "[16]", "value": "11.2 µM (active)"}, {"measurement": "EC50", "setting": "[17]", "value": "0.531 µM (active)"}, {"measurement": "EC50", "setting": "[9]", "value": "53.8 µM (active)"}, {"measurement": "EC50", "setting": "[10]", "value": "66.3 µM (active)"}, {"measurement": "EC50", "setting": "[18]", "value": "3.26 µM (active)"}, {"measurement": "IC50", "setting": "Prothrombin", "value": "> 50 µM (not active)"}]}
